Test results: the NIST ThermoML archive (doi:10.1016/j.fluid.2013.01.026)
± gives the expanded uncertainty stated by the source.

Conditions: Crystal; Melting Point Apparatus

Row | Normal melting temperature [°C] | SMILES
1 | 177.20 ± 0.2 | C[C@@H]1O[C@@H](OC[C@H]2O[C@@H](Oc3c(-c4ccc(O)c(O)c4)oc4cc(O)cc(O)c4c3=O)[C@H](O)[C@@H](O)[C@@H]2O)[C@H](O)[C@H](O)[C@H]1O [rutin]
2 | 337.38 ± 0.2 | O=c1cc(-c2ccc(O)c(O)c2)oc2cc(O)cc(O)c12 [5,7,3',4'-tetrahydroxyflavone]
